Legend:
Format in all cases: biochemical
[1] = target: T1, doubly truncated TPH1 (ΔNH102-ΔCOOH402) (Homo sapiens, UniProt P17752); assay: Tryptophan hydroxylase enzymatic activity assay (HPLC quantification of 5-OH-Trp), doubly truncated TPH1
T1 construct: The ΔNH102-ΔCOOH402 human TPH1 gene was cloned; six-His (C); made in house

MAO-A = target: T2, MAO-A (Homo sapiens, UniProt P21397); assay: MAO-A enzymatic activity assay (MAO-A Inhibitor Screening Kit, fluorimetric detection of H2O2); conditions: 25°C, 15 min kinetic read; mean (95% confidence interval), three experiments
T2 construct: purchased BioVision, Inc, Milpitas, CA
T2 sequence (P21397 1-527): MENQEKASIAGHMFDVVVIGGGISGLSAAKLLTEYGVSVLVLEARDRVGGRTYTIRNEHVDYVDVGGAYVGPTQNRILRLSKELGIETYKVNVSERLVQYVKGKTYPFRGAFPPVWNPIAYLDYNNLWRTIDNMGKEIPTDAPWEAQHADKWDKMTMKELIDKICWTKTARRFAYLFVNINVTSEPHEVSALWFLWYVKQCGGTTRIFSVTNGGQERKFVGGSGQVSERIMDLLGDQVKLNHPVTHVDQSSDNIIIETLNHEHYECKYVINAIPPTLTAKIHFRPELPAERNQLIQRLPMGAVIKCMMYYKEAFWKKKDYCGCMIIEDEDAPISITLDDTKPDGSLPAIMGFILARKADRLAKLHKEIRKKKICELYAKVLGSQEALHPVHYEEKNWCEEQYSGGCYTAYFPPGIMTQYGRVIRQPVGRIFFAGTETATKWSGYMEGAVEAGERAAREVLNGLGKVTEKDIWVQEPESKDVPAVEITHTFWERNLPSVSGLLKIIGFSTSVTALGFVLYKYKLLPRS
Experimental: The experiments were conducted following the manufacturer’s (BioVision, Inc, Milpitas, CA) instructions and were based on the fluorimetric detection of H2O2, a byproduct of the enzymatic activity of MAO-A, by measuring the fluorescence (Excitation/Emission at 535/587 nm) kinetically at 25°C for 15 min using a Tecan Spark plate reader (Tecan Group Ltd, Männedorf, Switzerland).
Relative inhibition of MAO-A was calculated as a percentage using the following Eq. 2: %Relative inhibition=((Slope of EC−Slope of S)/Slope of EC)×100 (2)
The slopes for all samples, either containing Enzyme Control (EC) or test substance (S), were calculated by dividing the net change in relative fluorescence units (ΔRFU; RFU2–RFU1) by the time interval (Δt; t2 –t1).

full-length WT TPH1 = target: T3, full-length WT TPH1 (Homo sapiens, UniProt P17752); assay: Tryptophan hydroxylase enzymatic activity assay, full-length WT TPH1; conditions: (95% confidence interval)
T3 construct: made in house
T3 sequence (P17752 1-444): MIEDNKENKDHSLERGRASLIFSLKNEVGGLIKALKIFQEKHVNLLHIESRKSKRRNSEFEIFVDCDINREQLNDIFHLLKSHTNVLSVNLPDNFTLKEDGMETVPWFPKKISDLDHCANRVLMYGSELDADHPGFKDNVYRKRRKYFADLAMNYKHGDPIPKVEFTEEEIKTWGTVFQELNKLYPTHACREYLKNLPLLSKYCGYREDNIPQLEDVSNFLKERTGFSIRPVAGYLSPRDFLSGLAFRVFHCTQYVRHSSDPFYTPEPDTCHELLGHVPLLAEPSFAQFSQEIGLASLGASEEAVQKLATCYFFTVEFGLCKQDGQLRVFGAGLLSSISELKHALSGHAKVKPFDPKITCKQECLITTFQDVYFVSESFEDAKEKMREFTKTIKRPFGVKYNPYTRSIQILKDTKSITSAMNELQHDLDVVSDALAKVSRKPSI
Text: The […] human TPH1 gene was cloned into the pET23a vector (six-His C-terminal fusion; Merck KGaA, Darmstadt, Germany) between the NdeI and XhoI restriction sites, and expressed and purified as described previously ([Wang et al., 2002]; [Betari et al., 2020]). Truncated TPH1 was used since the full-length enzyme tends to aggregate in bacteria and yeast extracts and during purification ([Wang et al., 2002]; [McKinney et al., 2005]), resulting in a much lower protein yield compared to the truncated version. Enzymatic activity of truncated TPH1 is equal to that of the full-length protein ([Betari et al., 2020]). […] Full-length WT TPH1 and TPH2 were expressed as N-terminal six-His-maltose-binding protein fusion proteins in pETM-41 and were cleaved and purified as described previously ([McKinney et al., 2004]; [Winge et al., 2007]). Human WT PAH and TH were expressed and isolated as described previously ([[…] et al., 2012]; [Bezem et al., 2016]). […] Control experiments were performed in the presence of 1% DMSO in the absence of ligand. […] 5-hydroxy tryptophan (5-OH-Trp) was quantified using High Performance Liquid Chromatography (HPLC) essentially as described previously with minor modifications ([McKinney et al., 2004]; [[…] et al., 2020]).

[2] = target: T1, doubly truncated TPH1 (ΔNH102-ΔCOOH402); assay: Mechanism of action and kinetics analysis of TPH1 inhibition (Michaelis-Menten)
Experimental: 5-OH-Trp formation was measured either at a fixed concentration (200 µM) of the cofactor, BH4, and varying concentrations (0.625–20 µM) of the substrate, L-Trp, or in the presence of varying concentrations of BH4 (2.4–200 µM) and a fixed concentration (20 µM) of L-Trp. Kinetic parameters were estimated by fitting the Michaelis-Menten model to the data using nonlinear regression.
Human doubly truncated TPH1 (ΔNH102-ΔCOOH402) was used for kinetic protein-ligand interaction studies. The enzyme assays were performed as described above. […] When enzyme activity was measured as a function of substrate (L-Trp) concentration (0.625–20 µM), the concentration of the cofactor (BH4) was fixed at 200 µM.

reduction of TPH1 activity ([1]; 100 µM compound, preliminary activity assay): more than 50%
IC50 ([1]; doubly truncated TPH1, 20 µM L-Trp, 200 µM BH4, 37°C, mean (95% confidence interval), three experiments in duplicate): 3.09 µM
IC50 (MAO-A): 89.4 µM
IC50 (full-length WT TPH1): 3.55 µM
Vmax ([2]; (A) L-Trp 0.625–20 µM, BH4 200 µM, omeprazole 1 µM): 24.96 (23.18–26.74) µmol/min/mg
Vmax ([2]; (A) L-Trp 0.625–20 µM, BH4 200 µM, omeprazole 10 µM): 21.08 (18.84–23.32) µmol/min/mg
Vmax ([2]; (A) L-Trp 0.625–20 µM, BH4 200 µM, omeprazole 100 µM): 7.03 (6.07–7.98) µmol/min/mg
Vmax ([2]; (B) BH4 2.4–200 µM, L-Trp 20 µM, omeprazole 1 µM): 39.93 (37.18–42.69) µmol/min/mg
Vmax ([2]; (B) BH4 2.4–200 µM, L-Trp 20 µM, omeprazole 10 µM): 31.06 (28.90–33.21) µmol/min/mg
Vmax ([2]; (B) BH4 2.4–200 µM, L-Trp 20 µM, omeprazole 100 µM): 21.11 (18.96–23.26) µmol/min/mg
mode of TPH1 inhibition ([2]; with respect to L-Trp and to BH4): non-competitive inhibitor
Compound: COc1ccc2[nH]c([S+]([O-])Cc3ncc(C)c(OC)c3C)nc2c1 (centres unmarked) [Omeprazole]

Reference: publication PMC7726444 (Frontiers in Pharmacology, 2020)
